Patent US8324273B2 (XenoPort, Inc., priority 2006, dated 2012)
Each block holds one molecule with its values, some of them ahead of it.

Key:
[1] = Hygroscopicity of crystalline hydrogen fumarate (21) crystallized from various solvents; assay type: physicochemical
Experimental: (1R)-2-Acetyloxy-1-methylethyl (2S)-2-amino-3-[3,4-bis(ethoxycarbonyloxy)phenyl]propanoate hydrogen fumarate (21) was crystallized using the solvents listed in Table 1 on a 100 mg scale.

[2] = following oral administration of NB-355; cited from earlier work
[3] = Intracolonic bioavailability of levodopa prodrugs in monkeys; assay type: in vivo, male Cynomologous monkeys; conditions: male, monkey, whole blood, intravenous, 10 mg; read-out: mean AUCinf
Experimental: Male Cynomologous monkeys weighing about 3.0 kg were used in the studies. Monkeys are fasted overnight prior to the study until 4 hours after dosing. Water was provided ad libitum.
Carbidopa was prepared as a solution (0.72 mg/mL) in sodium acetate buffer pH 5.16.
Blood samples were collected at pre-dose and at 0.17, 0.25, 0.5, 0.75, 1, 2, 4, 6, 8, 12, and 24 hours post-dose. About 0.3 mL of blood was collected in pre-chilled K2EDTA tubes containing 100 μL of 10% sodium metabisulfite. The contents were gently vortexed at low speed to ensure that the sampled blood came into contact with sodium metabisulfite while maintaining ice on the samples at all times. About 0.1 mL of the anticoagulated blood was added to each of 2 pre-chilled cryovials that each contained about 0.3 mL of quenching media (89.3% v/v methanol and 10.7% v/v 4N perchloric acid) within 5 minutes of bleed. Within 30 minutes of blood collection, the samples were centrifuged at about 3,000 rpm, 4° C., for 10 min. The samples were then stored at −70° C.
Blood samples were analyzed as described in Example 30.

Hygroscopicity ([1]; crystallized from acetonitrile-methyl tert-butyl ether): None
Hygroscopicity ([1]; crystallized from ethyl acetate): None
Hygroscopicity ([1]; crystallized from ethyl acetate-diisopropyl ether): None
Hygroscopicity ([1]; crystallized from ethyl acetate-methyl tert-butyl ether): None
melting point: 78.1 to 80.7 °C
Compound: CCOC(=O)Oc1ccc(C[C@H](N)C(=O)O[C@H](C)COC(C)=O)cc1OC(=O)OCC.O=C(O)/C=C/C(=O)O [Compound 21, (1R)-2-Acetyloxy-1-methylethyl (2S)-2-Amino-3-[3,4-bis(ethoxycarbonyloxy)phenyl]propanoate Hydrogen Fumarate]

Compound: CC(C)(C)C(=O)Oc1ccc(C[C@H](N)C(=O)O)cc1O [NB-355]
duration of circulating levodopa [2]: prolonged
plasma concentrations of levodopa [2]: low

AUC(0-inf) [3]: 3690 ng·h/mL
Compound: N[C@@H](Cc1ccc(O)c(O)c1)C(=O)O [levodopa, L-3,4-dihydroxyphenylalanine]
